Results as given in US10414811B2, “Protease-resistant lipidated GLP-1 analogs” (MEDIMMUNE LIMITED, priority 2015, dated 2019).
Read-outs that look alike come from different tables or passages of the source. Numbered stars: 1 amine (or outer) side, 2 acyl side, 3 side chain; on linkers, the order of the positions; unused ones are H or OH. Square brackets hold non-standard residues; d marks the D form. Side chains are listed from the residue outwards. Peptide text beside a SMILES is read from it. * marks the point of attachment. γGlu = O=C(O)[C@H](CCC(=O)[*:2])N[*:1]; Stearoyl = CCCCCCCCCCCCCCCCCC(=O)*; Palmitoyl = CCCCCCCCCCCCCCCC(=O)*; αMeF = C[C@](N)(Cc1ccccc1)C(=O)O; αMeK = C[C@](N)(CCCCN)C(=O)O; Lauroyl = CCCCCCCCCCCC(=O)*; αMeS = C[C@](N)(CO)C(=O)O; AEEA = NCCOCCOCC(=O)O; Aib = CC(C)(N)C(=O)O

Assays:
Assay type in all cases: cell-based
[1] = target: T1, human GLP-1 receptor (GLP-1R) (Homo sapiens, UniProt P43220); test: cAMP assay, human GLP-1R cells; conditions: tris-lipidated peptides
T1 construct: expressed in transfected cells
Method in brief: (§1)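 Peptide-stimulated cAMP measured by two-step HTRF after a 30 min room-temperature incubation with receptor-expressing cells (hGLP-1R, hGIPR at 1×10^5 cells/ml; hGCGR at 2×10^5 cells/ml). Duplicate dilutions; EC50 from 4-parameter logistic fit of % Delta F.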

[2] = target: T2, human glucagon receptor (GCGR) (Homo sapiens, UniProt P47871); test: cAMP assay, human GCGR cells
T2 construct: expressed in transfected cells
Method in brief: as §1

[3] = target: T3, human glucose-dependent insulinotropic peptide receptor (GIPR) (Homo sapiens, UniProt P48546); test: cAMP assay, human GIPR cells
T3 construct: expressed in transfected cells
T3 sequence (P48546 22-466): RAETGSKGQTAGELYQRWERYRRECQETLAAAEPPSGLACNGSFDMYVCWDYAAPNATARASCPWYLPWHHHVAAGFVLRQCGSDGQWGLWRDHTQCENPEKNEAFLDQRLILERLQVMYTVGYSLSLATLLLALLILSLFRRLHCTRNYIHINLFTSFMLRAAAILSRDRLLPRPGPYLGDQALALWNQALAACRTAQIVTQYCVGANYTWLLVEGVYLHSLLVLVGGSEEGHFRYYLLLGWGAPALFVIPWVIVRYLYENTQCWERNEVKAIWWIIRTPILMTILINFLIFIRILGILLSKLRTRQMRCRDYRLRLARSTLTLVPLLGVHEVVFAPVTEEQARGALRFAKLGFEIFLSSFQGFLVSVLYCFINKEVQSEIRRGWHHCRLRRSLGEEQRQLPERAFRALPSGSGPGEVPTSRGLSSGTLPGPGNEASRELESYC
Method in brief: as §1

GLP-1R (INS1e assay) = target: T4, GLP-1R (INS1e assay) (Rattus norvegicus, UniProt P32301); test: INS1e assay, cAMP activity at GLP-1R
T4 construct: endogenous in cells; host or cells: INS-1E cells
T4 sequence (P32301 22-463): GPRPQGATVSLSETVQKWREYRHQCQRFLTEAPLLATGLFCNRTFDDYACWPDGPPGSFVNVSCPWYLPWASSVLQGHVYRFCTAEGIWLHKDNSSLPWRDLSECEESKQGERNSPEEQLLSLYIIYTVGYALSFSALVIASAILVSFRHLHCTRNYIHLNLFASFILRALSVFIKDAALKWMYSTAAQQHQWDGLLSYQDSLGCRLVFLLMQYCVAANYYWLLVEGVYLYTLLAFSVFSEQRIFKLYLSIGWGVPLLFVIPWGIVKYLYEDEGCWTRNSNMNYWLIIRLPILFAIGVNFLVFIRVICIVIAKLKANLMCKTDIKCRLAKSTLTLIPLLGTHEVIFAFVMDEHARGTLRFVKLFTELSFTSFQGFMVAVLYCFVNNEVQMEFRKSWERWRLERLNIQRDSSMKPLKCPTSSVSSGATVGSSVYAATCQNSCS
Method in brief: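 It pairs cAMP-d2 acceptor with anti-cAMP cryptate donor, both prepared 1/20 in conjugate/lysis buffer, applied as a two-step protocol.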

[4] = mean of n1 and n2, read-out: Primary assay EC50 Mean pM GLP-1R
[5] = replicate n1, read-out: Primary assay EC50 GLP-1R n1
[6] = replicate n2, read-out: Primary assay EC50 GLP-1R n2
[7] = tris-lipidated peptides, mean of n1 and n2, read-out: INS1e assay EC50 Mean pM GLP-1R
[8] = tris-lipidated peptides, replicate n1, read-out: INS1e assay EC50 GLP-1R n1
[9] = tris-lipidated peptides, replicate n2, read-out: INS1e assay EC50 GLP-1R n2
[10] = cAMP assay, first determination (n1), read-out: Primary assay EC50 Gluc-R (n1)
[11] = cAMP assay, second determination (n2), read-out: Primary assay EC50 Gluc-R (n2)
[12] = cAMP assay, first determination (n1), read-out: Primary assay EC50 GIP-R (n1)
[13] = cAMP assay, second determination (n2), read-out: Primary assay EC50 GIP-R (n2)
[14] = mono-lipidated peptides, mean of n1 and n2, read-out: INS1e assay EC50 Mean pM GLP-1R
[15] = mono-lipidated peptides, replicate n1, read-out: INS1e assay EC50 GLP-1R n1
[16] = mono-lipidated peptides, replicate n2, read-out: INS1e assay EC50 GLP-1R n2

T2 sequence (P47871 26-477): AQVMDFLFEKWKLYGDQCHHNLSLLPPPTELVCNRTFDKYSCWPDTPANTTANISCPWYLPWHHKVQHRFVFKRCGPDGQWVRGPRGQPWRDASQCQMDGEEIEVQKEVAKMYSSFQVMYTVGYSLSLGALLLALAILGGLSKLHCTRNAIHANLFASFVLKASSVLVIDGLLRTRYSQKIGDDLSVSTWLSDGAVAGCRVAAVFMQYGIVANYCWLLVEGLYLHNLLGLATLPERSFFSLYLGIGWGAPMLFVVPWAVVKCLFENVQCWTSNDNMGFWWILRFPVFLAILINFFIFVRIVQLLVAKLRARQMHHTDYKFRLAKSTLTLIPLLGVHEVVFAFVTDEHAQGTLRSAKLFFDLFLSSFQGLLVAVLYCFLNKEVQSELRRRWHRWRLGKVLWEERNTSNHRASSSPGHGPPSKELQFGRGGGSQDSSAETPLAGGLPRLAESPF
T1 sequence (P43220 24-463): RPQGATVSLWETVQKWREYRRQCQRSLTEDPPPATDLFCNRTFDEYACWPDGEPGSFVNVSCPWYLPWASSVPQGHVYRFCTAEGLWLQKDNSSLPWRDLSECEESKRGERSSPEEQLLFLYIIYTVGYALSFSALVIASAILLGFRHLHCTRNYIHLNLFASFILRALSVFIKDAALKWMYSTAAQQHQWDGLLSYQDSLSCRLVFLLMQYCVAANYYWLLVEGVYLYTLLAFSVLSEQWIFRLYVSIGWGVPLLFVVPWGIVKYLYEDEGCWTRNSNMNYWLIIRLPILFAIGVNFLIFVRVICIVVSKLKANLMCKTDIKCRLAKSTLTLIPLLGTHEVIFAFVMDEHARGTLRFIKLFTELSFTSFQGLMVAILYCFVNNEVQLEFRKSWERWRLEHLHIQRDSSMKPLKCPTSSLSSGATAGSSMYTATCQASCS

Compound	EC50 [1, 4] [pM]	EC50 [1, 5] [pM]	EC50 [1, 6] [pM]	EC50 ([2]; tris-lipidated peptides, first replicate, read-out: Primary assay EC50 Gluc-R (n1)) [nM]	EC50 ([3]; tris-lipidated peptides, first replicate, read-out: Primary assay EC50 GIP-R (n1)) [nM]	EC50 (GLP-1R (INS1e assay); [7]) [pM]	EC50 (GLP-1R (INS1e assay); [8]) [pM]	EC50 (GLP-1R (INS1e assay); [9]) [pM]	EC50 ([2]; tris-lipidated peptides, second replicate, read-out: Primary assay EC50 Gluc-R (n2)) [nM]	EC50 ([3]; tris-lipidated peptides, second replicate, read-out: Primary assay EC50 GIP-R (n2)) [nM]	EC50 [2, 10] [nM]	EC50 [2, 11] [nM]	EC50 [3, 12] [nM]	EC50 [3, 13] [nM]	EC50 (GLP-1R (INS1e assay); [14]) [pM]	EC50 (GLP-1R (INS1e assay); [15]) [pM]	EC50 (GLP-1R (INS1e assay); [16]) [pM]
CCCCCCCCCCCC(=O)N[C@@H](CCC(=O)NCCOCCOCC(=O)NCCOCCOCC(=O)NCCCC[C@H](NC(=O)[C@H](C)NC(=O)[C@@H](NC(=O)[C@H](Cc1ccccc1)NC(=O)[C@H](CCCCNC(=O)COCCOCCNC(=O)COCCOCCNC(=O)CC[C@H](NC(=O)CCCCCCCCCCC)C(=O)O)NC(=O)[C@](C)(CCCCN)NC(=O)[C@H](C)NC(=O)[C@H](C)NC(=O)[C@H](CCC(=O)O)NC(=O)CNC(=O)[C@H](CCC(=O)O)NC(=O)[C@H](CC(C)C)NC(=O)[C@H](CCCCNC(=O)COCCOCCNC(=O)COCCOCCNC(=O)CC[C@H](NC(=O)CCCCCCCCCCC)C(=O)O)NC(=O)[C@H](CO)NC(=O)[C@](C)(CO)NC(=O)[C@@H](NC(=O)[C@H](CC(=O)O)NC(=O)[C@H](CO)NC(=O)[C@@H](NC(=O)[C@](C)(Cc1ccccc1)NC(=O)[C@H](CO)NC(=O)CNC(=O)[C@H](CCC(=O)O)NC(=O)C(C)(C)NC(=O)[C@@H](N)Cc1c[nH]cn1)[C@@H](C)O)C(C)C)[C@@H](C)CC)C(=O)N[C@H](C(=O)N[C@H](C(=O)N[C@@H](CCC(=O)O)C(=O)NCC(=O)NCC(N)=O)C(C)C)C(C)C)C(=O)O [compound 466] (H-H[Aib]EGS[αMeF]TSDV[αMeS]SK([AEEA-AEEA-γGlu-Lauroyl])LEGEAA[αMeK]K([AEEA-AEEA-γGlu-Lauroyl])FIAK([AEEA-AEEA-γGlu-Lauroyl])VVEGG-NH2; N-terminus assumed)	22.4	17.2	27.5	20.2	20.2	3200	3860	2550									
CCCCCCCCCCCC(=O)N[C@@H](CCC(=O)NCCOCCOCC(=O)NCCOCCOCC(=O)NCCCC[C@H](NC(=O)[C@H](C)NC(=O)[C@@H](NC(=O)[C@H](Cc1ccccc1)NC(=O)[C@H](CCC(=O)O)NC(=O)[C@](C)(CCCCN)NC(=O)[C@H](C)NC(=O)[C@H](CCCCNC(=O)COCCOCCNC(=O)COCCOCCNC(=O)CC[C@H](NC(=O)CCCCCCCCCCC)C(=O)O)NC(=O)[C@H](CCC(=O)O)NC(=O)CNC(=O)[C@H](CCC(=O)O)NC(=O)[C@H](CCCCNC(=O)COCCOCCNC(=O)COCCOCCNC(=O)CC[C@H](NC(=O)CCCCCCCCCCC)C(=O)O)NC(=O)[C@H](Cc1ccc(O)cc1)NC(=O)[C@H](CO)NC(=O)[C@](C)(CO)NC(=O)[C@@H](NC(=O)[C@H](CC(=O)O)NC(=O)[C@H](CO)NC(=O)[C@@H](NC(=O)[C@](C)(Cc1ccccc1)NC(=O)[C@H](CO)NC(=O)CNC(=O)[C@H](CCC(=O)O)NC(=O)C(C)(C)NC(=O)[C@@H](N)Cc1c[nH]cn1)[C@@H](C)O)C(C)C)[C@@H](C)CC)C(=O)N[C@H](C(=O)N[C@H](C(=O)N[C@@H](CCC(=O)O)C(=O)NCC(=O)NCC(N)=O)C(C)C)C(C)C)C(=O)O [compound 469] (H-H[Aib]EGS[αMeF]TSDV[αMeS]SYK([AEEA-AEEA-γGlu-Lauroyl])EGEK([AEEA-AEEA-γGlu-Lauroyl])A[αMeK]EFIAK([AEEA-AEEA-γGlu-Lauroyl])VVEGG-NH2; N-terminus assumed)	45.4	41.8	49			4900	6900	2890	19.8	19.8							
CCCCCCCCCCCCCCCC(=O)N[C@@H](CCC(=O)NCCCC[C@H](NC(=O)[C@H](CCC(=O)O)NC(=O)[C@H](CC(C)C)NC(=O)[C@](C)(Cc1ccccc1)NC(=O)[C@H](CO)NC(=O)[C@](C)(CO)NC(=O)[C@@H](NC(=O)[C@H](CC(=O)O)NC(=O)[C@H](CO)NC(=O)[C@@H](NC(=O)[C@](C)(Cc1ccccc1)NC(=O)[C@H](CO)NC(=O)CNC(=O)[C@H](CCC(=O)O)NC(=O)C(C)(C)NC(=O)[C@@H](N)Cc1c[nH]cn1)[C@@H](C)O)C(C)C)C(=O)N[C@@H](CCC(=O)O)C(=O)N[C@@H](C)C(=O)N[C@@H](C)C(=O)N[C@@](C)(CCCCN)C(=O)N[C@@H](CCC(=O)O)C(=O)N[C@@](C)(Cc1ccccc1)C(=O)N[C@H](C(=O)N[C@@H](C)C(=O)N[C@@](C)(Cc1ccccc1)C(=O)N[C@H](C(=O)N[C@H](C(=O)N[C@@](C)(CCCCN)C(=O)NCC(=O)NCC(N)=O)C(C)C)C(C)C)[C@@H](C)CC)C(=O)O [compound 84] (H-H[Aib]EGS[αMeF]TSDV[αMeS]S[αMeF]LEK([γGlu-Palmitoyl])EAA[αMeK]E[αMeF]IA[αMeF]VV[αMeK]GG-NH2)											≥ 27	≥ 27	≥ 27	≥ 27	560	455	665
CC[C@H](C)[C@H](NC(=O)[C@](C)(Cc1ccccc1)NC(=O)[C@H](CCC(=O)O)NC(=O)[C@H](CCCCNC(=O)COCCOCCNC(=O)COCCOCCNC(=O)CC[C@H](NC(=O)CCCCCCCCCCCCCCC(=O)O)C(=O)O)NC(=O)[C@H](C)NC(=O)[C@H](C)NC(=O)[C@H](CCC(=O)O)NC(=O)CNC(=O)[C@H](CCC(=O)O)NC(=O)[C@H](CC(C)C)NC(=O)[C@](C)(Cc1ccccc1)NC(=O)[C@H](CO)NC(=O)[C@](C)(CO)NC(=O)[C@@H](NC(=O)[C@H](CC(=O)O)NC(=O)[C@H](CO)NC(=O)[C@@H](NC(=O)[C@](C)(Cc1ccccc1)NC(=O)[C@H](CO)NC(=O)CNC(=O)[C@H](CCC(=O)O)NC(=O)C(C)(C)NC(=O)[C@@H](N)Cc1c[nH]cn1)[C@@H](C)O)C(C)C)C(=O)N[C@@H](C)C(=O)N[C@@](C)(Cc1ccccc1)C(=O)N[C@H](C(=O)N[C@H](C(=O)N[C@@](C)(CCCCN)C(=O)NCC(=O)NCC(N)=O)C(C)C)C(C)C [compound 109]											≥ 26	≥ 25.6	≥ 26	≥ 25.6	6330	8350	4320
CCCCCCCCCCCCCCCCCC(=O)NCCOCCOCC(=O)NCCOCCOCC(=O)NCCOCCOCC(=O)NCCCC[C@H](NC(=O)[C@H](C)NC(=O)[C@H](C)NC(=O)[C@H](CCC(=O)O)NC(=O)CNC(=O)[C@H](CCC(=O)O)NC(=O)[C@H](CC(C)C)NC(=O)[C@H](Cc1ccc(O)cc1)NC(=O)[C@H](CO)NC(=O)[C@](C)(CO)NC(=O)[C@@H](NC(=O)[C@H](CC(=O)O)NC(=O)[C@H](CO)NC(=O)[C@@H](NC(=O)[C@](C)(Cc1ccccc1)NC(=O)[C@H](CO)NC(=O)CNC(=O)[C@H](CCC(=O)O)NC(=O)C(C)(C)NC(=O)[C@@H](N)Cc1c[nH]cn1)[C@@H](C)O)C(C)C)C(=O)N[C@@H](CCC(=O)O)C(=O)N[C@@](C)(Cc1ccccc1)C(=O)N[C@H](C(=O)N[C@@H](C)C(=O)N[C@@](C)(Cc1ccccc1)C(=O)N[C@H](C(=O)N[C@H](C(=O)N[C@@](C)(CCCCN)C(=O)NCC(=O)NCC(N)=O)C(C)C)C(C)C)[C@@H](C)CC [compound 53] (H-H[Aib]EGS[αMeF]TSDV[αMeS]SYLEGEAAK([AEEA-AEEA-AEEA-Stearoyl])E[αMeF]IA[αMeF]VV[αMeK]GG-NH2)											≥ 26	≥ 26	≥ 26	≥ 26	7	6.25	8.15
